The results in this text go back to patent US5147866A, “1,2-diamino-cyclobuten-3,4-dione derivatives” (Beecham Group p.l.c., priority 1989, dated 1992).

Assay [1] in a line: Antihypertensive activity: systolic blood pressure, tail cuff method, spontaneously hypertensive rats. Type of assay: in vivo. The settings on record: spontaneously hypertensive rats (systolic blood pressure >180 mmHg). How it is done:
Systolic blood pressures were recorded by a modification of the tail cuff method described by I. M. Claxton, M. G. Palfreyman, R. H. Poyser, R. L. Whiting, European Journal of Pharmacology, 37, 179 (1976). A W+W BP recorder, model 8005 was used to display pulses. Prior to all measurements rats were placed in a heated environment (33.5°±0.5° C.) before transfer to a restraining cage. Each determination of blood pressure was the mean of at least 5 readings. Spontaneously hypertensive rats (ages 12-18 weeks) with systolic blood pressures >180 mmHg were considered hypertensive.

For assay [2], the system named is guinea-pig isolated trachealis. In words: Bronchodilator activity: inhibition of spontaneous tone in guinea-pig isolated trachealis. The settings on record: Cavia porcellus; tracheal spirals, Krebs solution 37° C.; relaxation as percentage of total relaxation with 10^-3 M isoprenaline. As for the experimental part:
Male guinea pigs (300-600 g) were stunned by a blow to the head and bled from the carotid artery. The trachea was exposed, dissected free of connective tissue, and transferred to oxygenated Krebs solution at 37° C. Next, spirals (2 per trachea) were prepared by cutting the whole trachea spirally along its longitudinal axis and then dividing this spiral lengthwise. Each preparation was mounted, using silk thread, in a 10 ml organ bath filled with Krebs solution at 37° C. and bubbled with 5% CO2 with O2. The resting tension of the preparations was set at 2 g and changes in muscle tension were monitored isometrically by means of a UFI (2 oz) force and displacement transducer (Ormed Ltd) connected to a Linseis pen recorder. All preparations were allowed to equilibrate for 60 minutes. During this equilibration period the preparations were washed by upward displacement at 15 minute intervals and, if necessary, the resting tension was readjusted to 2 g using a mechanical micromanipulator system.
Once a steady resting tension had been obtained, the preparations were dosed […] with the test compound (10^-8 -2×10^-5 M), and finally a maximum relaxation achieved by addition of 10^-3 M isoprenaline. The fall in tension evoked by the test compound was expressed as a percentage of the total relaxation evoked in the presence of […]. Appropriate concentration-relaxation curves were then constructed and values for potency (IC50) were obtained.
[The composition of Krebs solution is: sodium chloride 118.07 mM, sodium hydrogen carbonate 26.19 mM, potassium chloride 4.68 mM, potassium orthophosphate 1.18 mM, magnesium sulphate septahydrate 1.8 mM and calcium chloride 2.52 mM;pH ca. 7.45.]

One may read the pIC50 as the IC50 on a negative log10 scale, so that one unit is a factor of ten.

SMILES strings stand for the structures. pIC50: −log10 of the molar value.

For `CN(c1c(N)c(=O)c1=O)[C@@H]1c2cc(C#N)ccc2OC(C)(C)[C@H]1O` (relative stereo) [Example 3, trans-N'-[4-(6-Cyano-3,4-dihydro-2,2-dimethyl-2H-1-benzopyran-3-ol)]-2-amino-1-methylaminocyclobutene-3,4-dione], the “lowers blood pressure by” value in assay [1] (3 mg/kg p.o.) worked out at 58%. In assay [2], this compound gave a pIC50 of 5.51.
For `CC1(C)Oc2ccc(C#N)cc2[C@@H](Nc2c(N)c(=O)c2=O)[C@@H]1O` (relative stereo) [Example 1], in that order: 50% and 5.43.
For `CNc1c(N[C@@H]2c3cc(C#N)ccc3OC(C)(C)[C@H]2O)c(=O)c1=O` (relative stereo) [Example 2], in assay [1] (3 mg/kg p.o.), the “lowers blood pressure by” value turned out to be 17%. Further, in assay [2], the pIC50 is 5.40.
Consider `CCc1ccc2c(c1)[C@@H](N(C)c1c(N)c(=O)c1=O)[C@H](O)C(C)(C)O2` [Example 12, trans-(3S,4R)-N^1-[4-(6-Ethyl-3,4-dihydro-2,2-dimethyl-2H-1-benzopyran-3-ol)]-2-amino-1-methylaminocyclobutene-3,4-dione], for which the “lowers blood pressure by” value in assay [1] (0.05 mg/Kg p.o.) was 24%.
